Results reported in publication PMC6136660 (Steroids, 2018).

Assays:
[1] = Phase 1 multiple ascending dose (MAD) pharmacokinetics, 14 days once daily; assay type: in vivo, human; conditions: for CL/F: human, plasma, oral, read-out: CL/F, range of geometric mean values
Procedure: The MAD part of the study was initiated after a review of safety and PK data from SAD cohorts 1 to 6. In the MAD part, 4 cohorts containing 8 subjects each were randomized to receive vamorolone or placebo, in a 3:1 ratio, once daily (QD) for 14 days. The duration of dosing in the MAD part was determined based on the PK data from the SAD part. In each cohort, 3 sentinel subjects were administered vamorolone or placebo, in a 2:1 ratio.
The planned dose levels for the MAD part were 1.0 mg/kg (Cohort 1), 3.0 mg/kg (Cohort 2), 9.0 mg/kg (Cohort 3), and 20.0 mg/kg (Cohort 4) or until the maximum tolerated dose (MTD) was identified.
Daily doses of vamorolone (1.0, 3.0, 9.0 and 20.0 mg/kg/day) were given in the morning in a fasted state, daily for 14 days, and PK determined on day 1 (after single dose) and day 14 (after the 14th dose). Consistent with the SAD, mean plasma vamorolone concentrations and dose-related PK parameters increased in a dose related manner (Fig. 3). Log-log plots of the individual subject Cmax and AUC (inf) were linear. Although the slopes ranged from 0.827 to 0.898, the deviation from 1.0 may be a consequence of between-subject variability and not indicative of a less than dose-proportional increase in exposure.

[2] = Aqueous solubility (statement); assay type: physicochemical; conditions: aqueous solutions
[3] = test system: blood glucose (insulin resistance biomarker); test: Blood glucose / fasting insulin, MAD; assay type: in vivo, human; conditions: for Blood glucose: mean±SEM
Procedure: All biomarkers were analyzed using standard immunoassays by PRA.
Glucocorticoids were originally named as such due to their potent and acute effects on glucose metabolism, where liver and muscle pathways for insulin signaling are rapidly and profoundly affected, creating a state of insulin resistance. […] Fasting insulin and glucose levels were assessed in all dose groups in the vamorolone Phase 1 SAD and MAD.

[4] = test system: adrenal suppression; parameters: method as in PMID 23498916, PMID 24014378, PMID 27133900; conditions: in vitro assays in multiple cell types; cited from earlier work
[5] = SAD food effect cohort (8 mg/kg with high fat/high calorie meal) pharmacokinetics; assay type: in vivo, human
Procedure: In the SAD part of the study, 7 cohorts were to be enrolled. Eight subjects were assigned to each of Cohorts 1 to 5 and 7 and received a single oral dose of vamorolone (planned as 0.1 mg/kg, 0.3 mg/kg, 1.0 mg/kg, 3.0 mg/kg, 8.0 mg/kg, and 20.0 mg/kg, respectively) or placebo under fasted conditions. Six subjects were assigned to Cohort 6 and were administered a single oral dose of 8.0 mg/kg vamorolone within 30 min of beginning a high fat/high calorie meal.
Subjects in Cohorts 1 through 5 and 7 were randomized to receive vamorolone or placebo in a 3:1 ratio (6 subjects received vamorolone, and 2 subjects received placebo) sequentially. In Cohort 1, 3 sentinel subjects were administered vamorolone or placebo in a 2:1 ratio. Following a review of sentinel safety and tolerability data (including reported adverse events [AEs], clinical laboratory tests, vital signs, and electrocardiograms [ECGs]), the remaining 5 subjects were randomized to receive vamorolone or placebo in a 4:1 ratio and dosed no earlier than 48 h after sentinel dosing. In Cohorts 2 to 5, and 7, subjects were administered vamorolone or placebo in a 3:1 ratio. Once Cohort 5 was completed and safety data had been reviewed, subjects in Cohort 6 were administered a single oral dose of 8.0 mg/kg vamorolone within 30 min of beginning a standard high fat/high calorie meal.

[6] = human, plasma, single oral 8 mg/kg, fed, geometric mean (%CV)

## C[C@@H]1C[C@H]2[C@@H]3CCC4=CC(=O)C=C[C@]4(C)C3=CC[C@]2(C)[C@@]1(O)C(=O)CO [vamorolone]
[1]; Day 1 vs Day 14, once daily 14 days
  drug accumulation between daily doses: essentially no drug accumulation between doses
[1]; MAD Day 1, across 1-20 mg/kg/day
  CL/F: 23.7 to 33.7 mL/min/kg
[1]; MAD Day 14, across 1-20 mg/kg/day
  CL/F: 21 to 35.8 mL/min/kg
[2]
  solubility: very poor solubility in aqueous solutions
[3]; MAD 1.0 mg/kg, Day 1 (predose), baseline
  Blood glucose: 86 ± 1 md/dL
[3]; MAD 1.0 mg/kg, Day 2 predose
  Blood glucose: 87 ± 2 md/dL
[3]; MAD 1.0 mg/kg, Day 3 predose
  Blood glucose: 86 ± 2 md/dL
[3]; MAD 1.0 mg/kg, Day 7 predose
  Blood glucose: 84 ± 2 md/dL
[3]; MAD 1.0 mg/kg, Day 12 predose
  Blood glucose: 83 ± 1 md/dL
[3]; MAD 1.0 mg/kg, Day 14 (predose)
  Blood glucose: 84 ± 1 md/dL
[3]; MAD 1.0 mg/kg, Day 17 (3 days after last dose)
  Blood glucose: 86 ± 1 md/dL
[3]; MAD 1.0 mg/kg, Day 21 follow-up
  Blood glucose: 90 ± 3 md/dL
[3]; MAD 1.0 mg/kg, Day -1, baseline
  Blood glucose: 90 ± 2 md/dL
[3]; MAD 1.0 mg/kg, Screening, baseline
  Blood glucose: 92 ± 1 md/dL
[3]; MAD 3.0 mg/kg, Day 1 (predose), baseline
  Blood glucose: 87 ± 1 md/dL
[3]; MAD 3.0 mg/kg, Day 2 predose
  Blood glucose: 87 ± 1 md/dL
[3]; MAD 3.0 mg/kg, Day 3 predose
  Blood glucose: 84 ± 2 md/dL
[3]; MAD 3.0 mg/kg, Day 7 predose
  Blood glucose: 82 ± 1 md/dL
[3]; MAD 3.0 mg/kg, Day 12 predose
  Blood glucose: 83.1 ± 1.4 md/dL
[3]; MAD 3.0 mg/kg, Day 14 (predose)
  Blood glucose: 81 ± 2 md/dL
[3]; MAD 3.0 mg/kg, Day 17 (3 days after last dose)
  Blood glucose: 84 ± 1 md/dL
[3]; MAD 3.0 mg/kg, Day 21 follow-up
  Blood glucose: 91 ± 2 md/dL
[3]; MAD 3.0 mg/kg, Day -1, baseline
  Blood glucose: 90 ± 1 md/dL
[3]; MAD 3.0 mg/kg, Screening, baseline
  Blood glucose: 90.1 ± 1.5 md/dL
[3]; MAD 9.0 mg/kg, Day 1 (predose), baseline
  Blood glucose: 89 ± 2 md/dL
[3]; MAD 9.0 mg/kg, Day 2 predose
  Blood glucose: 87 ± 1 md/dL
[3]; MAD 9.0 mg/kg, Day 3 predose
  Blood glucose: 88 ± 2 md/dL
[3]; MAD 9.0 mg/kg, Day 7 predose
  Blood glucose: 87 ± 2 md/dL
[3]; MAD 9.0 mg/kg, Day 12 predose
  Blood glucose: 84 ± 2 md/dL
[3]; MAD 9.0 mg/kg, Day 14 (predose)
  Blood glucose: 84 ± 2 md/dL
[3]; MAD 9.0 mg/kg, Day 17 (3 days after last dose)
  Blood glucose: 85 ± 2 md/dL
[3]; MAD 9.0 mg/kg, Day 21 follow-up
  Blood glucose: 88 ± 2 md/dL
[3]; MAD 9.0 mg/kg, Day -1, baseline
  Blood glucose: 89 ± 1 md/dL
[3]; MAD 9.0 mg/kg, Screening, baseline
  Blood glucose: 89 ± 3 md/dL
[3]; MAD 20.0 mg/kg, Day 1 (predose), baseline
  Blood glucose: 87 ± 1 md/dL
[3]; MAD 20.0 mg/kg, Day 2 predose
  Blood glucose: 84 ± 1 md/dL
[3]; MAD 20.0 mg/kg, Day 3 predose
  Blood glucose: 83 ± 1 md/dL
[3]; MAD 20.0 mg/kg, Day 7 predose
  Blood glucose: 82 ± 1 md/dL
[3]; MAD 20.0 mg/kg, Day 12 predose
  Blood glucose: 80 ± 2 md/dL
[3]; MAD 20.0 mg/kg, Day 14 (predose)
  Blood glucose: 80 ± 2 md/dL
[3]; MAD 20.0 mg/kg, Day 17 (3 days after last dose)
  Blood glucose: 81 ± 2 md/dL
[3]; MAD 20.0 mg/kg, Day 21 follow-up
  Blood glucose: 91 ± 3 md/dL
[3]; MAD 20.0 mg/kg, Day -1, baseline
  Blood glucose: 89 ± 1 md/dL
[3]; MAD 20.0 mg/kg, Screening, baseline
  Blood glucose: 90 ± 3 md/dL
[3]; all dose groups SAD and MAD, any time point
  fasting insulin and glucose levels vs placebo: did not differ from placebo
[4]
  adrenal suppressive activity relative to traditional glucocorticoids: ~ 1%
[5]; 8 mg/kg, fed vs fasted
  AUC(0-t) ratio of the geometric means: 2.54
  AUC(inf) ratio of the geometric means: 2.82
  Cmax ratio of the geometric means: 2.53
  increase in bioavailability with a 40 g fat meal: 250%
[5]; 8 mg/kg, high calorie/high fat meal (40 g fat) vs fasted
  increase in Cmax, AUC(0-t), and AUC(inf) under fed conditions: 2.5 fold
[5]; 8 mg/kg, high calorie/high fat meal vs fasted
  increase in Tmax under fed conditions: ~ 2 fold
[5]; [6]
  AUC(0-inf): 10200 ng·h/mL
  AUC(0-t): 10100 ng·h/mL
  Cmax: 1820 ng/mL
[5]; human, plasma, single oral 8 mg/kg, fed, geometric mean (%CV), read-out: CL/F (converted)
  CL/F: 13.2 mL/min/kg
[5]; human, plasma, single oral 8 mg/kg, fed, geometric mean (%CV), read-out: Vz/F
  Vd/F: 2.67 L/kg
[5]; human, plasma, single oral 8 mg/kg, fed, geometric mean (%CV), read-out: t½ (converted)
  half-life: 2.35 h
[5]; human, plasma, single oral 8 mg/kg, fed, geometric mean (%CV), read-out: λz (converted)
  k el: 8.19e-05 s⁻¹
[5]; human, plasma, single oral 8 mg/kg, fed, median
  Tmax: 4 h
[5]; single oral 8 mg/kg, fed, geometric mean (%CV)
  CL/F: 66.7 (28.4) (6) L/h
